# Data published in PMC6472032 (Marine Drugs, 2019).
# Positions of bridges follow the written chain, without caps; N, C: chain ends. Non-standard residues stand in square brackets, D forms with d. Residues, ends and D or L forms follow the SMILES beside them.
# Columns and labels:
# rat α3β2 nAChR = rat α3β2 nAChR (Rattus norvegicus, UniProt P04757+P12390); assay type: cell-based
# rat α2β4 nAChR = rat α2β4 nAChR (Rattus norvegicus, UniProt P12389+P12392); assay type: cell-based
# rat α4β4 nAChR = rat α4β4 nAChR (Rattus norvegicus, UniProt P09483+P12392); assay type: cell-based
# rat α4β2 nAChR = rat α4β2 nAChR (Rattus norvegicus, UniProt P09483+P12390); assay type: cell-based
# human α9α10 nAChR = human α9α10 nAChR (Homo sapiens, UniProt Q9GZZ6+Q9UGM1); experiment: cell-based; conditions: for inhibition at 10 µM: read-out: inhibition of ACh-evoked currents
# rat α9α10 nAChR = rat α9α10 nAChR (Rattus norvegicus, UniProt P43144+Q9JLB5); experiment: cell-based; conditions: for inhibition at 0.1 µM: read-out: inhibition of ACh-evoked current amplitude; for inhibition of ACh-evoked current amplitude: 0.1 µM
# rat α6/α3β4 nAChR = rat α6/α3β4 nAChR (Rattus norvegicus, UniProt P04757+P12392+P43143); assay type: cell-based
# Chain of rat α3β2 nAChR (P04757 26-499 limits assumed): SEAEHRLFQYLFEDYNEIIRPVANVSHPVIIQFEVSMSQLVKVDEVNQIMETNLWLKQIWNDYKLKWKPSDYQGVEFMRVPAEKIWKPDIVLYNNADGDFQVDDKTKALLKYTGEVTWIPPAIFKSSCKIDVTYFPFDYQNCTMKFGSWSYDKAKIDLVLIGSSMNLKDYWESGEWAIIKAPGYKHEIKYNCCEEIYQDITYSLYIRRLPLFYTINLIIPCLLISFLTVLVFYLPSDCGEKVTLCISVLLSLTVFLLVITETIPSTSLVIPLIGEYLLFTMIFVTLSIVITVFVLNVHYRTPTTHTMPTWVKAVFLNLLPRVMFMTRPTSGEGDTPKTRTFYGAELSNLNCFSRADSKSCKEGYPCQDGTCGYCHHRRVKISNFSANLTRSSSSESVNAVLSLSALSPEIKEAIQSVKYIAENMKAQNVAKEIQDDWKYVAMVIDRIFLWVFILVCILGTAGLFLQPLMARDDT
# Chain of rat α3β2 nAChR (P12390 25-500 limits assumed): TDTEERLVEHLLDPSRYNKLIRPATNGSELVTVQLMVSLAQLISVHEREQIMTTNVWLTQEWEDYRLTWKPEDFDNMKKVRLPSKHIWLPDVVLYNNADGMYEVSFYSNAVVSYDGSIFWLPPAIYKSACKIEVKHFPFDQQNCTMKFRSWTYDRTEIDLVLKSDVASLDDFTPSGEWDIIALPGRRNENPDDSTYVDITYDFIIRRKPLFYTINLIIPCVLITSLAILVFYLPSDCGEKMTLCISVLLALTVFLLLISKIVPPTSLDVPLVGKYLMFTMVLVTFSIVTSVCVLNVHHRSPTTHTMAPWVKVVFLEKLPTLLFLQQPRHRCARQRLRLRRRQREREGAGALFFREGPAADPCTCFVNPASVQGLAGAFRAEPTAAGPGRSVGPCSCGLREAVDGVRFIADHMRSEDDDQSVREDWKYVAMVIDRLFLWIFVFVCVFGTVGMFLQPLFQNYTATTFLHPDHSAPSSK
# Chain of human α9α10 nAChR (Q9UGM1 26-479 limits assumed): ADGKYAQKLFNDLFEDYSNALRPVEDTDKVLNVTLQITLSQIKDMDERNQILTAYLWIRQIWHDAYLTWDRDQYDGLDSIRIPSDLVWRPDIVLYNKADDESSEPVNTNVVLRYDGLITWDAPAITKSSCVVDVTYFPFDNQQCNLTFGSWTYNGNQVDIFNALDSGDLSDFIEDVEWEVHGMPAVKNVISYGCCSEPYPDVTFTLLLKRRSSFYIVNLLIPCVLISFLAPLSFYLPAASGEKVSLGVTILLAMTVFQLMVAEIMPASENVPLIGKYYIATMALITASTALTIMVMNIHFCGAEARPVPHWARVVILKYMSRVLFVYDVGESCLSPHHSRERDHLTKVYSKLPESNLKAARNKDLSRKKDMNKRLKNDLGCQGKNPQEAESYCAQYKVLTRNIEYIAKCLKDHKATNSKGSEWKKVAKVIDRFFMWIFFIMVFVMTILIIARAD
# Chain of human α9α10 nAChR (Q9GZZ6 25-450 limits assumed): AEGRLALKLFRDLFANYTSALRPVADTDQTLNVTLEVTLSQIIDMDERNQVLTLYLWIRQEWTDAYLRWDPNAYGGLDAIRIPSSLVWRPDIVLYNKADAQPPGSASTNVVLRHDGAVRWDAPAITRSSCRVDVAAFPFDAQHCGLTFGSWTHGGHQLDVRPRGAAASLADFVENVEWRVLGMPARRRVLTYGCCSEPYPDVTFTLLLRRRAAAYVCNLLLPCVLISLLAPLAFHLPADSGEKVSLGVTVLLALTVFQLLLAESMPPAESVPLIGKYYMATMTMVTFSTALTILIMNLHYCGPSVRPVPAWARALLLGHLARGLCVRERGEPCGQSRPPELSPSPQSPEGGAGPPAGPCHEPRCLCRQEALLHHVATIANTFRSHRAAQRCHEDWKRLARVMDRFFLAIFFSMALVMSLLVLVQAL
# Chain of rat α2β4 nAChR (P12389 28-511 limits assumed): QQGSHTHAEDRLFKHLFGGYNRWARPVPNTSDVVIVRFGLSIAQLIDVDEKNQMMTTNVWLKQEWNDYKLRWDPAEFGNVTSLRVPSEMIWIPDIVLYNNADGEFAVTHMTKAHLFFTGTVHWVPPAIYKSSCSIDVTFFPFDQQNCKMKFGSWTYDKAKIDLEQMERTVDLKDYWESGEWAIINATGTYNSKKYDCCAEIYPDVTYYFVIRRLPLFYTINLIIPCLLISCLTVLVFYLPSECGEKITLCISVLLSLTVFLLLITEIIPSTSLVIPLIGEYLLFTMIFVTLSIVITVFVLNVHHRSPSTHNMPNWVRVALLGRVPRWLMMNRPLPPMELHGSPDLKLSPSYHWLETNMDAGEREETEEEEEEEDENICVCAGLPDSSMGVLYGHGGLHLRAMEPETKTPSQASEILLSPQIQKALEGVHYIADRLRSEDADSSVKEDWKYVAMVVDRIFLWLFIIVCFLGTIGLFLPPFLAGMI
# Chain of rat α2β4 nAChR (P12392 21-495 limits assumed): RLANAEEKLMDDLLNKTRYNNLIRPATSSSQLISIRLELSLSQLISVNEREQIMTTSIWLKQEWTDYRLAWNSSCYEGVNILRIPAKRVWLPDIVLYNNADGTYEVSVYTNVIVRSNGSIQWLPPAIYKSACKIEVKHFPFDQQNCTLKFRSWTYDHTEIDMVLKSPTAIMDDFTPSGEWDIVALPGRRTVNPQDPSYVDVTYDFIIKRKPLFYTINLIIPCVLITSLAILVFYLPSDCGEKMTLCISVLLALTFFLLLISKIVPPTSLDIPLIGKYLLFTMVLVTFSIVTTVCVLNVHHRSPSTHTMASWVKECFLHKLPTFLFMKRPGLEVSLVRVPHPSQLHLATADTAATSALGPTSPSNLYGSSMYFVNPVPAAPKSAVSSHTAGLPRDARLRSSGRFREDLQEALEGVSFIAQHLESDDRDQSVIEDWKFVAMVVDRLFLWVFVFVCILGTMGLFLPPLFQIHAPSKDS
# Chain of rat α4β2 nAChR (P09483 31-630 limits assumed): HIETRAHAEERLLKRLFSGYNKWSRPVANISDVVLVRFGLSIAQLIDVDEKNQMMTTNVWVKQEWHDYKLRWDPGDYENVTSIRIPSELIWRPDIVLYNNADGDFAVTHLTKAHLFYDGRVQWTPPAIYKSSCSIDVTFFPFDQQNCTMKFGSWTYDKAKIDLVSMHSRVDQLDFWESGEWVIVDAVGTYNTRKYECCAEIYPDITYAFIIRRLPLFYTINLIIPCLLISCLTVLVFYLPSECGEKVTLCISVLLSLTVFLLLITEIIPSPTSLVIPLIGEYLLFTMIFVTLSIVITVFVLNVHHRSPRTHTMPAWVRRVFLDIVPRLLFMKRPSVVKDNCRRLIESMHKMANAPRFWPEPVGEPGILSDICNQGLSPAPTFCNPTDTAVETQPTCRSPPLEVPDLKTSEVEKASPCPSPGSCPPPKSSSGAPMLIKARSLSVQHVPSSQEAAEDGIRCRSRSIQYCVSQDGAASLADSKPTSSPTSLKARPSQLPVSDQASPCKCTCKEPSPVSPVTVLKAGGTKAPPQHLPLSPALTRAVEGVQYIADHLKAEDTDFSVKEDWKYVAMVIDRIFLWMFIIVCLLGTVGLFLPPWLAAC
# Chain of rat α4β2 nAChR (P12390 25-500 limits assumed): as the sequence (P12390 25-500 limits assumed) above
# Chain of rat α4β4 nAChR (P09483 31-630 limits assumed): as the sequence (P09483 31-630 limits assumed) above
# Chain of rat α4β4 nAChR (P12392 21-495 limits assumed): as the sequence (P12392 21-495 limits assumed) above
# Chain of rat α9α10 nAChR (P43144 26-479 limits assumed): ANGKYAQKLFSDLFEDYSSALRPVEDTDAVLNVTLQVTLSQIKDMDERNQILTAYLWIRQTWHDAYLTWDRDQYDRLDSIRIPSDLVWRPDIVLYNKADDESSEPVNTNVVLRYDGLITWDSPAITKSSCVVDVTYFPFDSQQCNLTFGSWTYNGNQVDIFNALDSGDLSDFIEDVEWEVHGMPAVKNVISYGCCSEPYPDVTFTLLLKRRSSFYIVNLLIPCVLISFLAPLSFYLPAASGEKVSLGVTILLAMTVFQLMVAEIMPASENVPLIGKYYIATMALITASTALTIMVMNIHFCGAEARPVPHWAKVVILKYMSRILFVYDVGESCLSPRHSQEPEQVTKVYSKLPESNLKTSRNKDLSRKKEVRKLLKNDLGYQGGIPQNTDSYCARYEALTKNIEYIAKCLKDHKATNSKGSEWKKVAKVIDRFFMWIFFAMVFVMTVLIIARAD
# Chain of rat α9α10 nAChR (Q9JLB5 25-447 limits assumed): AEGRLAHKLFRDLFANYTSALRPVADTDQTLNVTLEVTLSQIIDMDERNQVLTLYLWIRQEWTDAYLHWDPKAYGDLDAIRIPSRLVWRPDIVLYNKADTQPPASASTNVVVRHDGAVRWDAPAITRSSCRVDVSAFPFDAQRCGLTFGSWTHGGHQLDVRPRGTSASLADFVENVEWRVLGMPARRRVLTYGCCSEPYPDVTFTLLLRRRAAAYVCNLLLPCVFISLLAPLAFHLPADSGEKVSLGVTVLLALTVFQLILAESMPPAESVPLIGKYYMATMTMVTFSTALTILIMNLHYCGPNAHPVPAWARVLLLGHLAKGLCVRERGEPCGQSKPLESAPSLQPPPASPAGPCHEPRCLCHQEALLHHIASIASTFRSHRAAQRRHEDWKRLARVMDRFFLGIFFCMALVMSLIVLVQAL
Compound,activity against rat α3β2 nAChR (rat α3β2 nAChR),activity against rat α2β4 nAChR (rat α2β4 nAChR),activity against rat α4β4 nAChR (rat α4β4 nAChR),activity against rat α4β2 nAChR (rat α4β2 nAChR),inhibition at 10 µM (human α9α10 nAChR) [%],inhibition at 0.1 µM (rat α9α10 nAChR) [%],activity against rat α6/α3β4 nAChR (rat α6/α3β4 nAChR),activity at a concentration of 10 μM (rat α9α10 nAChR),other results
N=C(N)NCCC[C@@H]1NC(=O)[C@@H]2CSSC[C@H](NC(=O)CN)C(=O)N[C@@H](CSSC[C@@H](C(=O)N[C@H](CCCNC(=N)N)C(=O)O)NC(=O)[C@H](CCCNC(=N)N)NC(=O)[C@H](Cc3ccc(O)cc3)NC1=O)C(=O)N[C@@H](CO)C(=O)N[C@@H](CC(=O)O)C(=O)N1CCC[C@H]1C(=O)N[C@@H](CCCNC(=N)N)C(=O)N2 [Compound 13],inactive,inactive,inactive,inactive,70 to 90,97.2 ± 0.05,inactive,,
N=C(N)NCCC[C@@H](NC(=O)[C@@H]1CSSC[C@@H]2NC(=O)[C@@H](NC(=O)CN)CSSC[C@H](NC(=O)[C@@H](CCCNC(=N)N)NC(=O)[C@@H]3CCCN3C(=O)[C@H](CC(=O)O)NC(=O)[C@H](CO)NC2=O)C(=O)N[C@H](CCCNC(=N)N)C(=O)N[C@@H](Cc2ccc(O)cc2)C(=O)N[C@H](CCCNC(=N)N)C(=O)N1)C(=O)O [Compound 14],inactive,inactive,inactive,inactive,70 to 90,,inactive,,inhibition of ACh-evoked current amplitude (rat α9α10 nAChR): did not inhibit
"N=C(N)NCCC[C@H]1NC(=O)[C@H](Cc2ccc(O)cc2)NC(=O)[C@@H](CCCNC(=N)N)NC(=O)[C@@H]2CSSC[C@H](NC(=O)CN)C(=O)N[C@@H](CSSC[C@@H](C(N)=O)NC1=O)C(=O)N[C@@H](CO)C(=O)N[C@@H](CC(=O)O)C(=O)N1CCC[C@H]1C(=O)N[C@H](CCCNC(=N)N)C(=O)N2 [Compound 15] (H-GCCSDP[dR]C[dR]Y[dR]C-NH2; disulfide 2-8, 3-12)",inactive,inactive,inactive,inactive,70 to 90,,inactive,,IC50 (human α9α10 nAChR): 680 nM; IC50 (rat α9α10 nAChR): 288 nM; inhibition of ACh-evoked current amplitude (rat α9α10 nAChR): did not inhibit
N=C(N)NCCC[C@H](NC(=O)[C@@H]1CSSC[C@@H]2NC(=O)[C@@H](NC(=O)CN)CSSC[C@H](NC(=O)[C@H](CCCNC(=N)N)NC(=O)[C@@H]3CCCN3C(=O)[C@H](CC(=O)O)NC(=O)[C@H](CO)NC2=O)C(=O)N[C@@H](CCCNC(=N)N)C(=O)N[C@@H](Cc2ccc(O)cc2)C(=O)N[C@H](CCCNC(=N)N)C(=O)N1)C(=O)O [Compound 11],,,,,,,,not active,
N=C(N)NCCC[C@H](NC(=O)[C@@H]1CSSC[C@@H]2NC(=O)[C@@H](NC(=O)CN)CSSC[C@H](NC(=O)[C@H](CCCNC(=N)N)NC(=O)[C@@H]3CCCN3C(=O)[C@@H](CC(=O)O)NC(=O)[C@H](CO)NC2=O)C(=O)N[C@@H](CCCNC(=N)N)C(=O)N[C@@H](Cc2ccc(O)cc2)C(=O)N[C@@H](CCCNC(=N)N)C(=O)N1)C(=O)O [Compound 5],,,,,,,,not active,
N=C(N)NCCC[C@H](NC(=O)[C@@H]1CSSC[C@H]2NC(=O)[C@@H](NC(=O)CN)CSSC[C@H](NC(=O)[C@H](CCCNC(=N)N)NC(=O)[C@@H]3CCCN3C(=O)[C@H](CC(=O)O)NC(=O)[C@H](CO)NC2=O)C(=O)N[C@@H](CCCNC(=N)N)C(=O)N[C@@H](Cc2ccc(O)cc2)C(=O)N[C@@H](CCCNC(=N)N)C(=O)N1)C(=O)O [Compound 3],,,,,,78.7 ± 2,,,
N=C(N)NCCC[C@H](NC(=O)[C@@H]1CSSC[C@@H]2NC(=O)[C@@H](NC(=O)CN)CSSC[C@H](NC(=O)[C@H](CCCNC(=N)N)NC(=O)[C@@H]3CCCN3C(=O)[C@H](CC(=O)O)NC(=O)[C@@H](CO)NC2=O)C(=O)N[C@@H](CCCNC(=N)N)C(=O)N[C@@H](Cc2ccc(O)cc2)C(=O)N[C@@H](CCCNC(=N)N)C(=O)N1)C(=O)O [Compound 4],,,,,,,,not active,
N=C(N)NCCC[C@H](NC(=O)[C@@H]1CSSC[C@@H]2NC(=O)[C@@H](NC(=O)CN)CSSC[C@H](NC(=O)[C@H](CCCNC(=N)N)NC(=O)[C@H]3CCCN3C(=O)[C@H](CC(=O)O)NC(=O)[C@H](CO)NC2=O)C(=O)N[C@@H](CCCNC(=N)N)C(=O)N[C@@H](Cc2ccc(O)cc2)C(=O)N[C@@H](CCCNC(=N)N)C(=O)N1)C(=O)O [Compound 6],,,,,,,,not active,
"C[C@@H](N)C(=O)N[C@H]1CSSC[C@@H]2NC(=O)[C@H](CCCNC(=N)N)NC(=O)[C@@H]3CCCN3C(=O)[C@H](CC(=O)O)NC(=O)[C@H](CO)NC(=O)[C@H](CSSC[C@@H](C(=O)N[C@@H](CCCNC(=N)N)C(=O)O)NC(=O)[C@H](CCCNC(=N)N)NC(=O)[C@H](Cc3ccc(O)cc3)NC(=O)[C@H](CCCNC(=N)N)NC2=O)NC1=O [Compound 1] (H-[dA]CCSDPRCRYRCR-OH; disulfide 2-8, 3-12)",,,,,,70.6 ± 2,,,IC50 (human α9α10 nAChR): > 10000 nM; IC50 (rat α9α10 nAChR): 41.1 nM
N=C(N)NCCC[C@H](NC(=O)[C@@H]1CSSC[C@@H]2NC(=O)[C@@H](NC(=O)CN)CSSC[C@H](NC(=O)[C@@H](CCCNC(=N)N)NC(=O)[C@@H]3CCCN3C(=O)[C@H](CC(=O)O)NC(=O)[C@H](CO)NC2=O)C(=O)N[C@@H](CCCNC(=N)N)C(=O)N[C@@H](Cc2ccc(O)cc2)C(=O)N[C@@H](CCCNC(=N)N)C(=O)N1)C(=O)O [Compound 7],,,,,,,,not active,
